The target of test [1] is T1, aldose reductase (Bos taurus, UniProt P16116).
T1 construct: preparation of the enzyme from bovine lens; from tissue; host or cells: bovine lens
Briefly: In vitro inhibition of aldose reductase (modified Hayman and Kinoshita procedure, enzyme from bovine lens). In kind it is biochemical. The note with it: read-out: % Inhibition in Vitro. The source says:
In the present case the procedure of Hayman and Kinoshita was modified in that the final chromatography step was omitted in the preparation of the enzyme from bovine lens.

For test [2], the system named is galactosemic rats. Briefly: Lowering of galactitol (dulcitol) accumulation in tissues of galactosemic rats. The test is classed as in vivo, rat (Sprague-Dawley). As to conditions: for % Lowering of dulcitol accumulation In Vivo, % D (diaphragm) / % Lowering of dulcitol accumulation In Vivo, % L (lens) / % Lowering of dulcitol accumulation In Vivo, % N (sciatic nerve): 4 days, vs untreated galactosemic rats. The text has this: The aldose reductase inhibiting property of the compounds of this invention and the utilization of the compounds in preventing, diminishing and alleviating diabetic complications by lowering polyol accumulation were also demonstrable in experiments using galactosemic rats, see Dvornik et al, Science, 182, 1146 (1973). Such experiments are exemplified hereinbelow after the listing of the following general comments pertaining to these experiments:
(a) Four or more groups of six male rats, 50-70 g, Sprague-Dawley strain, were used. The first group, the control group, was fed a mixture of laboratory chow (rodent Laboratory Chow, Purina) and glucose at 20% (w/w %) concentration. The untreated galactosemic group and the drug-treated groups were fed a similar diet in which galactose is substituted for glucose. The test compound was either admixed to the diet or administered by gavage. In experiments involving compound administration in the diet, the average dose administered was calculated from the actual food intake of the animals in each group. The concentration of galactose in the diet of the treated groups was the same as that for the untreated galactosemic groups.
(b) After four days, the amimals were killed by decapitation. The eyeballs were removed and punctured with a razor blade; the freed lenses were rolled gently on filter paper and weighed. The sciatic nerves were dissected as completely as possible and weighed. Both tissues when frozen can be kept up to two weeks before being analyzed for galactitol.
(c) The polyol determination was performed by a modification of the procedure of M. Kraml and L. Cosyns, Clin. Biochem., 2, 373 (1969). Only two minor reagent changes were made: (a) the rinsing mixture was an aqueous 5% (w/v) trichloroacetic acid solution and (b) the stock solution was prepared by dissolving 25 mg of dulcitol in 100 mL of an aqueous trichloroacetic acid solution. [N.B.: For each experiment the average value found in the tissue from rats fed the glucose diet was subtracted from the individual values found in the corresponding tissue in galactose-fed rats to obtain the amount of polyol accumulated.]
The figures under L, N, and D represent the percentage decrease of galactitol accumulation in the tissues of the lens, sciatic nerve, and diaphragm, respectively, for treated rats as compared to untreated rats.

Data on 24 molecules can be found in patent US4946858A, “Novel spirosuccinimides as aldose reductase inhibitors and antihyperglycemic agents” (American Home Products Corporation, priority 1989, dated 1990).

Molecules are shown by their SMILES. Like-named read-outs stand apart in the source and are kept apart here.

In general, inhibition refers to how much of the control response was suppressed. Regarding `O=C1CC2(C(=O)N1)c1cc(Cl)ccc1C(=O)N2Cc1ccc(Br)cc1F` (stereo not drawn) [Example 121], the inhibition at 10 µM in test [1] (10^-5 M) was determined as 85%. In addition, the inhibition at 1 µM in test [1] (10^-6 M) was 70%.
For `CN1C(=O)c2cc(-c3ccccc3)ccc2C12CC(=O)NC2=O` (stereo not drawn) [Example 136], the inhibition at 10 µM in test [1] (10^-5 M) came out at 90%. In addition, the inhibition at 1 µM in test [1] (10^-6 M) was found to be 81%. Moreover, the “% Lowering of dulcitol accumulation In Vivo, % D (diaphragm)” value (“% Lowering … (diaphragm)” below) in test [2] (3 mg/kg) worked out at 29%; in test [2] (6 mg/kg), 43%; in test [2] (9 mg/kg), 55%. Further, the results for the “% Lowering of dulcitol accumulation In Vivo, % L (lens)” value (shortened to “% Lowering … (lens)”) in test [2] (6 mg/kg) and in test [2] (9 mg/kg) were 13% and 6%, respectively. Besides, the “% Lowering of dulcitol accumulation In Vivo, % N (sciatic nerve)” value (“% Lowering … (sciatic nerve)” for short) is 27% in test [2] (6 mg/kg, sciatic nerve) and 34% in test [2] (9 mg/kg, sciatic nerve).
Regarding `CN1C(=O)c2c(Cl)cccc2C12CC(=O)NC2=O` (stereo not drawn) [Example 126], the inhibition at 10 µM in test [1] (10^-5 M) is 85%. Further, the inhibition at 1 µM in test [1] is 65%.
For the molecule `COc1ccc2c(c1)C(=O)N(C)C21CC(=O)NC1=O` (stereo not drawn) [Example 129], the inhibition at 10 µM in test [1] (10^-5 M) came out at 83%. For the same molecule, the inhibition at 1 µM in test [1] (10^-6 M) is 56%.
Consider `O=C1CC2(C(=O)N1)c1ccccc1S(=O)(=O)N2Cc1ccccc1` (stereo not drawn) [Example 103], for which the inhibition at 10 µM in test [1] (10^-5 M) was 45%. The inhibition at 1 µM in test [1] (10^-6 M) was found to be 5%.
In the case of `COc1ccc2c(C(=S)N(C)CC(=O)O)cccc2c1C(F)(F)F` [Tolrestat, reference compound], the “% Lowering … (diaphragm)” value in test [2] (3 mg/kg) is reported as 80%. In test [2] (3 mg/kg, sciatic nerve), the “% Lowering … (sciatic nerve)” value was 30%.
Regarding `CSc1ccc2c(c1)C(=O)N(C)C21CC(=O)NC1=O` (stereo not drawn) [Example 130], the inhibition at 10 µM in test [1] (10^-5 M) was found to be 87%. For the same molecule, the inhibition at 1 µM in test [1] (10^-6 M) was determined as 60%.
Turning to `Cc1ccc2c(c1)C(=O)N(C)C21CC(=O)NC1=O` (stereo not drawn) [Example 133], the inhibition at 10 µM in test [1] (10^-5 M) stood at 89%. Moreover, the inhibition at 1 µM in test [1] (10^-6 M) was 61%.
`CN1C(=O)c2cc3ccccc3cc2C12CC(=O)NC2=O` (stereo not drawn) [Example 124, 2-methylspiro[1H-benz[f]isoindole-1,3'-pyrrolidine]-2',3,5'(2H)-trione]: in test [1] (10^-5 M), the inhibition at 10 µM turned out to be 95%. In test [1] (10^-6 M), the inhibition at 1 µM was 82%. Besides, in test [2] (10 mg/kg), the “% Lowering … (diaphragm)” value is recorded as 59% and the “% Lowering … (lens)” value was determined as 14%. The “% Lowering … (sciatic nerve)” value in test [2] (10 mg/kg, sciatic nerve) turned out to be 47%.
In the case of `CCCN1C(=O)c2cc(Cl)c(Cl)cc2C12CC(=O)NC2=O` (stereo not drawn) [Example 131], in test [1] (10^-5 M), the inhibition at 10 µM came out at 49%. Moreover, the inhibition at 1 µM in test [1] (10^-6 M) was determined as 12%.
As to `O=C1CC2(C(=O)N1)c1ccccc1S(=O)(=O)N2Cc1ccc2ccccc2c1Br` (stereo not drawn) [Example 112], the inhibition at 10 µM in test [1] (10^-5 M) amounted to 59%. For the same molecule, the inhibition at 1 µM in test [1] (10^-6 M) is 25%.
As to `O=C1CC2(C(=O)N1)c1ccccc1S(=O)(=O)N2Cc1ccc2ccccc2c1` (stereo not drawn) [Example 113], in test [1] (10^-5 M), the inhibition at 10 µM is 57%. In addition, the inhibition at 1 µM in test [1] (10^-6 M) worked out at 20%.
In the case of `Cc1cccc2c1C(=O)N(C)C21CC(=O)NC1=O` (stereo not drawn) [Example 135, 2,4-dimethylspiro[1H-isoindole-1,3'-pyrrolidine]-2',3,5'(2H)-trione], in test [1] (10^-5 M), the inhibition at 10 µM was determined as 84%. Moreover, the inhibition at 1 µM in test [1] (10^-6 M) amounted to 59%. Moreover, the “% Lowering … (diaphragm)” value in test [2] (3 mg/kg) is 37%; in test [2] (6 mg/kg), 57%; in test [2] (10 mg/kg), 69%. Also, the “% Lowering … (sciatic nerve)” value is 50% in test [2] (6 mg/kg, sciatic nerve) and 63% in test [2] (10 mg/kg, sciatic nerve). The “% Lowering … (lens)” value in test [2] (10 mg/kg) came out at 29%.
Consider `CN1C(=O)c2cc(Cl)ccc2C12CC(=O)NC2=O` (stereo not drawn) [Example 120, 5-chloro-2-methylspiro[1H-isoindole-1,3'-pyrrolidine]-2',3,5'(2H)-trione], for which the inhibition at 10 µM in test [1] (10^-5 M) turned out to be 88%. In addition, in test [1] (10^-6 M), the inhibition at 1 µM was determined as 72%. In addition, the “% Lowering … (sciatic nerve)” value in test [2] (3 mg/kg, sciatic nerve) was found to be 21%. In test [2] (81 mg/kg), the “% Lowering … (diaphragm)” value is listed as 80% and the “% Lowering … (lens)” value was determined as 54%. Besides, the “% Lowering … (sciatic nerve)” value in test [2] (81 mg/kg, sciatic nerve) is listed as 77%.
As for `COC(=O)c1ccc2c(c1)C1(CC(=O)NC1=O)N(C)C2=O` (stereo not drawn) [Example 134], the inhibition at 10 µM in test [1] (10^-5 M) turned out to be 87%. For the same molecule, in test [1] (10^-6 M), the inhibition at 1 µM was found to be 49%.
Take `CN1C(=O)c2cc(Br)ccc2C12CC(=O)NC2=O` (stereo not drawn) [Example 127]: the inhibition at 10 µM in test [1] (10^-5 M) came to 92%. Moreover, in test [1] (10^-6 M), the inhibition at 1 µM was 71%.
In the case of `CN1C(=O)c2ccc(Cl)cc2C12CC(=O)NC2=O` (stereo not drawn) [Example 102, 6-Chloro-2-methylspiro[1H-isoindole-1,3'-pyrrolidine]-2',3,5'(2H)-trione], the inhibition at 10 µM in test [1] (10^-5 M) amounted to 91%. The inhibition at 1 µM in test [1] (10^-6 M) worked out at 80%. The “% Lowering … (diaphragm)” value in test [2] (3 mg/kg) is listed as 43%; in test [2] (25 mg/kg), 81%. The “% Lowering … (lens)” value in test [2] (3 mg/kg) came out at 9%; in test [2] (25 mg/kg), 51%. Further, the “% Lowering … (sciatic nerve)” value in test [2] (3 mg/kg, sciatic nerve) worked out at 38%; in test [2] (25 mg/kg, sciatic nerve), 84%. Besides, the “comparison with sorbinil and tolrestat in the sciatic nerve” value in test [2] (3 mg/kg/day, sciatic nerve) is “comparable results to sorbinil at 4 mg/kg/day and tolrestat at 3 mg/kg/day in the sciatic nerve”.
For the molecule `CN1C(=O)c2ccc([N+](=O)[O-])cc2C12CC(=O)NC2=O` (stereo not drawn) [Example 132], the inhibition at 10 µM in test [1] (10^-5 M) was 91%. Besides, in test [1] (10^-6 M), the inhibition at 1 µM was found to be 77%.
For `CCN1C(=O)c2ccc(Cl)cc2C12CC(=O)NC2=O` (stereo not drawn) [Example 128], in that order: 78% and 37%.
On to `CN1C(=O)c2ccc(F)cc2C12CC(=O)NC2=O` (stereo not drawn) [Example 123], for which the inhibition at 1 µM in test [1] (10^-6 M) came to 74%. In addition, in test [1], the inhibition at 10 µM amounted to 93%.
On to `CN1C(=O)c2ccccc2C12CC(=O)NC2=O` (stereo not drawn) [Example 117], for which the inhibition at 1 µM in test [1] (10^-6 M) is 45%.
On to `CN1C2(CC(=O)NC2=O)c2ccccc2S1(=O)=O` (stereo not drawn) [Example 101, 2,3-Dihydro-2-methylspiro[benzisothiazole-3,3'-pyrrolidine]-2',5'-dione 1,1-Dioxide], for which, in test [1] (10^-5 M), the inhibition at 10 µM worked out at 40%. Also, the inhibition at 1 µM in test [1] (10^-6 M) amounted to 6%.
Regarding `CN1C(=O)c2cccc(Cl)c2C12CC(=O)NC2=O` (stereo not drawn) [Example 125], the inhibition at 10 µM in test [1] (10^-5 M) stood at 88%. The inhibition at 1 µM in test [1] (10^-6 M) is 57%. In addition, the “% Lowering … (diaphragm)” value in test [2] (3 mg/kg) was 23%; in test [2] (6 mg/kg) it was 37%; in test [2] (10 mg/kg), 47%. Moreover, the “% Lowering … (lens)” value turned out to be 7% in test [2] (6 mg/kg) and 13% in test [2] (10 mg/kg). Also, the “% Lowering … (sciatic nerve)” value in test [2] (6 mg/kg, sciatic nerve) is recorded as 21%; in test [2] (10 mg/kg, sciatic nerve), 32%.
`O=C1NC(=O)[C@@]2(CCOc3ccc(F)cc32)N1` [Sorbinil, [(4S)2,3-dihydro-6-fluorospiro[4H1-benzopyran-4,4imidazoli-dine2',5dione, reference compound]: the inhibition at 10 µM in test [1] (10^-5 M) stood at 83%. For the same molecule, the inhibition at 1 µM in test [1] (10^-6 M) was determined as 45%. Moreover, in test [2] (4 mg/kg), the “% Lowering … (diaphragm)” value worked out at 69% and the “% Lowering … (lens)” value was 46%. Besides, the “% Lowering … (sciatic nerve)” value in test [2] (4 mg/kg, sciatic nerve) worked out at 55%.
